This note sets out measurements from patent publication US20260327260A1, “PHOSPHONOALANINE OLIGOPEPTIDES AND METHODS OF MAKING AND USE THEREOF” (priority 2023, published 2026).

Holding throughout (assay type): biochemical, Streptomyces sp. NRRL S-515
One test concerns PnaA with PnaD. The test can be described thus: PnaD-PnaA coupled forward reaction, 31P NMR (PEP to PnAla). The protocol: Biochemical assays of His6-SUMO-PnaA with His6-PnaD. Typical reaction mixtures (300 μL) contained 20 μM His6-PnaD, 20 μM His6-SUMO-PnaA, 1.5 mM PEP, 3 mM L-Asp, 100 μM pyridoxal 5′-phosphate (PLP), and 2 mM MgCl2 in 50 mM HEPES, 150 mM NaCl, pH 7.5. Reactions were incubated at 30° C. for 2 hours, heat inactivated at 65° C. for 10 minutes, and then analyzed by ^31P NMR and LC-MS as described above.
Reactions in timecourse experiments ([…]) contained 10 μM His6-PnaD, 10 μM His6-SUMO-PnaA, 1.5 mM PEP, 10 mM L-Asp, 100 μM pyridoxal 5′-phosphate (PLP), and 2 mM MgCl2 in 50 mM HEPES, 150 mM NaCl, pH 7.5. Samples were where heat inactivated 1, 5, 10, 30, 60, 120, and 240 min after initiation and then analyzed by ^31P NMR as described above.
Reactions examining the effect of amino donor concentrations were the same as above, except they contained 1.5, 3, 5, or 10 mM of (L-Asp). Samples were heat inactivated after 120 min and then analyzed by ^31P NMR as described above.

The subject of a further test is PnaC. The test can be described thus: PnaC dipeptide ligation reactions (LC-HRMS). As to conditions: for nucleophiles accepted upon activation of the carboxylate: role: substrate (activated carboxylate); for acceptance as carboxylate: role: substrate (carboxylate), 30° C, 16 hours. The protocol:
(§1) These hypotheses were tested by overproducing and purifying recombinant PnaB and PnaC from E. coli for use in a series of biochemical assays. PnAla, Ala, and ATP were incubated with PnaB or PnaC and the reactions were monitored by ^31P NMR and LC-HRMS. […] To determine if either enzyme could convert Ala-Val into phosphonoalamide A, protein was removed from the PnaC reaction by ultrafiltration and Ala, ATP, and fresh PnaC or PnaB was added to the filtrate. LC-HRMS identified PnAla-Ala-Val as a product following the addition of PnaB, but not PnaC (FIG. 25A-FIG. 25C).
The ATP-Grasp ligases PnaC and PnaB underlie diversification of L-PnAla-containing oligopeptides. To understand the biochemical nature of this potential phosphonopeptide diversity, the substrate specificity of the dipeptide ligase PnaC was first delineated. Microscale biochemical reactions containing purified PnaC were performed with every combination of the 20 canonical amino acids and L-allo-threonine (231 total pairs of substrates). Reactions were analyzed by LC-HRMS to reveal putative dipeptides from 146 out of the 231 combinations. To distinguish residues in reactions containing isomeric pairs (e.g., Ile and Leu, Thr and allo-Thr) new reactions were prepared using ^15N-Ile and 4-^13C-2,3-D2-Thr as substrates. LC-HRMS/MS fragmentation analysis was then performed to verify all products and determine structures.
Biochemical assays of His6-PnaC. Typical reaction mixtures ([…]) contained 10 μM His6-PnaC, […], 3 mM of each L-amino acid, and 5 mM ATP in 50 mM Tris-HCl, 100 mM NaCl, 2 mM MgCl2 pH 9. Reactions were incubated at 30° C. for 16 hours, heat inactivated at 65° C. for 10 minutes, and then analyzed by LC-MS as described above.
(§2) Analysis of PnaC and PnaB substrate specificity reactions. An extracted ion chromatogram (EIC) was obtained for each potential product m z. The shape and retention time of each EIC were used to evaluate the quality and plausibility of true signals, and samples with low-confidence EICs were re-analyzed individually, to address the challenges of ion suppression (FIG. 31A-FIG. 31C) and background noise (FIG. 32A-FIG. 32D).

The test system of a further test is PnaB. Put plainly: PnaB ligation reactions (31P NMR, LC-HRMS). As to conditions: for conversion of dipeptide with PnAla into phosphonoalamide: role: substrate, dipeptide 3 mM, with PnAla 1 mM and ATP 3 mM, pH 9, 30° C. The protocol: as §1
Biochemical assays of His6-PnaB. Typical reaction mixtures ([…]) contained 10 μM His6-PnaB, 3 mM ATP, 1 mM L-PnAla, 3 mM chemically synthesized L-Ala-L-Val, L-Val-L-Val, L-Ala-L-Ile, or L-Thr-L-Val in 50 mM Tris-HCl, 100 mM NaCl, 2 mM MgCl2 pH 9. Reactions were incubated at 30° C. for 2 hours, heat inactivated at 65° C. for 10 minutes, and then analyzed by NMR and LC-MS as described above.

The next test concerns PnaB and PnaC. Put plainly: One-pot tripeptide synthesis using PnaB and PnaC. To be noted: for abundance of PnAla conjugate: role: substrate (dipeptide), with PnAla 1 mM and ATP 5 mM, one-pot with PnaC.
Source text: Having established the diversity of dipeptides produced by PnaC, the reaction specificity of PnaB was probed. PnaC was used to generate substrates for the ligation of PnAla by PnaB. Microscale reactions contained PnaB, PnaC, PnAla, and all pairs of amino acids shown to form dipeptides. LC-HRMS and fragmentation analysis was then used to identify and verify PnAla-containing tripeptides from these 80 reactions (FIG. 4B, Table 4, Table 5). Altogether, the combined enzyme system produced 97 distinct PnAla-tripeptides, 93 of which had not been previously isolated (FIG. 29 & FIG. 30).
Tripeptide synthesis assays using PnaB and PnaC. Reaction mixtures ([…]) contained 10 μM His6-PnaB, 10 μM His6-PnaC, 1 mM L-PnAla, 3 mM L-amino acid A, 3 mM L-amino acid B, and 5 mM ATP in 50 mM Tris-HCl, 100 mM NaCl, 2 mM MgCl2 pH 9. Reactions were incubated at 30° C. for 16 hours, heat inactivated at 65° C. for 10 minutes, and then analyzed by NMR and LC-MS as described above.
as §2

The test system of another test is PnaA. Put plainly: PnaA reverse transamination reaction, 31P NMR/LC-MS (PnAla to PnPy). As to conditions: role: cofactor; additional PLP provided, with PnAla and OAA. The method, then: Biochemical assays of His6-SUMO-PnaA. Typical reaction mixtures (300 μL) contained 20 μM His6-SUMO-PnaA, 1.5 mM L-PnAla, 3 mM oxaloacetate, and 100 μM pyridoxal 5′-phosphate (PLP) in 50 mM HEPES, 150 mM NaCl, pH 7.5. Reactions were incubated at 30° C. for 2 hours, heat inactivated at 65° C. for 10 minutes, and then analyzed by NMR and LC-MS as described above.
Reactions in time course experiments (150 μL) contained 10 μM His6-SUMO-PnaA, 1.5 mM L-PnAla, 10 mM oxaloacetate (OAA), and 100 μM pyridoxal 5′-phosphate (PLP) in 50 mM HEPES, 150 mM NaCl, pH7.5. Samples were where heat inactivated 1, 5, 10, 30, 60, 120, and 240 min after initiation and then analyzed by ^31P NMR as described above.
Reactions examining the effect of keto-acid acceptor concentrations were the same as above, except they contained 1.5, 3, 5, or 10 mM of (OAA). Samples were heat inactivated after 120 min and then analyzed by ^31P NMR as described above.

The next test has as its system PnaD and PnaA. The test can be described thus: Coupled PnaD-PnaA kinetics: PEP conversion to L-PnAla, coupled to MDH/NADH oxidation. To be noted: second substrate L-Asp 5 mM. The source says:
Apparent steady state parameters were also derived for the conversion of PEP to L-PnAla in reactions with equimolar amounts of PnaD and PnaA (FIG. 20A-FIG. 20B). […] The lower activity in the two-enzyme system is consistent with the slower rate of L-PnAla accumulation observed in the time course experiments (FIG. 16), reflects the unfavourability of PnPy formation [B30], and supports the general hypothesis that PepM activity is the limiting step in Pn biosynthetic pathways.
Kinetic analyses. All reactions (400 μL) were performed in 50 mM HEPES, 150 mM NaCl, pH 7.5, 30° C. using an Agilent Cary 300 spectrophotometer. The instrument was first blanked using the reaction containing the enzymes and the fixed substrate (without NADH). Initial rates were calculated from continual changes in absorbance (340 nm) before and after substrate addition. Data were analyzed using SigmaPlot 15.
Conversion of PEP and L-Asp to L-PnAla and OAA by His6-SUMO-PnaA and His6-PnaD. Each reaction contained 1 μM PnaA, 5 μM PnaD, 5 μM MDH, 200 uM NADH, 2 mM MgCl2, 5 mM L-Asp, and were initiated by the addition of 0.1, 0.2, 0.35, 0.5, 0.65, 0.8, or 1 mM PEP. PnaA was pre-incubated with PLP (1:5) on ice for 10 min prior to use.

Setting [1] is: role: substrate (PEP, 0.1-1 mM), MgCl2 2 mM, PnaD and PnaA coupled, pH 7.5, 30° C.

Residues, ends and D or L forms follow the SMILES beside them.

Turning to `N[C@@H](CC(=O)O)C(=O)O` [L-Asp, reference compound], in the test on PnaA with PnaD (role: substrate (amino donor), with PEP, PLP), the “amino donor dependence of PnAla formation” value is given as “strictly dependent on L-Asp as the amino donor”. Take `C[C@H](N)C(=O)O` [Ala, Alanine]: the “substrate preference (average ion intensity of dipeptides)” value with PnaC (role: substrate, with ATP, LC-HRMS ion intensity) is on record as “average ion intensity nearly a magnitude larger than any other group”. With `C[C@H](O)[C@H](N)C(=O)O` [allo-Thr, allothreonine], the “nucleophiles accepted upon activation of the carboxylate” value in the test on PnaC (with ATP) was “both Thr and Pro as nucleophiles, to the exclusion of Trp”. As for `N[C@@H](CS)C(=O)O` [cysteine, Cysteine], in the test with PnaC (with ATP), the acceptance as carboxylate result is “all but arginine and cysteine were accepted as carboxylates”.

Turning to `C[C@@H](O)[C@H](N)C(=O)O` [Thr, Threonine], the “nucleophiles accepted upon activation of the carboxylate” value in the test on PnaC (with ATP) is recorded as “acceptance of Trp as a nucleophile, but not Thr or Pro”.

Take `CC[C@H](C)[C@H](NC(=O)[C@H](C)N)C(=O)O` [Ala-Ile] (H-Ala-Ile-OH): the “conversion of dipeptide with PnAla into phosphonoalamide” value (“conversion of dipeptide” for short) with PnaB was “respective conversion into phosphonoalamides B, C, and D”. Moreover, in the test with PnaB and PnaC, the “abundance of PnAla conjugate” value is “greatest abundance”.

As for `CC(C)[C@H](N)C(=O)N[C@H](C(=O)O)C(C)C` [Val-Val] (H-Val-Val-OH), the “conversion of dipeptide” value in the test with PnaB is “respective conversion into phosphonoalamides B, C, and D”. `CSCC[C@H](N)C(=O)N[C@@H](Cc1c[nH]c2ccccc12)C(=O)O` [Met-Trp] (H-Met-Trp-OH): in the test on PnaC (role: product, PnaC-only reaction, Met and Trp, ATP), the “product of Met + Trp reaction” value is given as “detected as the sole product”. `CC(C)C[C@H](NC(=O)[C@H](C)N)C(=O)O` [Ala-Leu] (H-Ala-Leu-OH): the “abundance of PnAla conjugate” value in the test on PnaB and PnaC is “greatest abundance”.

With `Cc1ncc(COP(=O)(O)O)c(C=O)c1O` [PLP, pyridoxal 5′-phosphate, reference compound], the “effect of PLP on PnAla formation” value with PnaA with PnaD (role: cofactor, without addition of PLP) is “enzyme activity was observed at significantly reduced amounts”. Besides, the “effect of PLP on PnPy formation” value with PnaA was “significantly greater PnPy was observed when additional PLP was provided”.

As to `Nc1ncnc2c1ncn2[C@@H]1O[C@H](COP(=O)(O)OP(=O)(O)OP(=O)(O)O)[C@@H](O)[C@H]1O` [ATP, reference compound], the ATP requirement entry in the test with PnaB (role: cofactor, ATP omitted) is “its omission abolished all activity”; with PnaC (role: cofactor, ATP omitted) it was “its omission abolished all activity”. For `C=C(OP(=O)(O)O)C(=O)O` [PEP, phosphoenolpyruvate], in the test on PnaD and PnaA (role: substrate (PEP), compared with PnPy), the “catalytic efficiency lower than that of PnaA directly provided with PnPy (fold)” value is on record as 1,000 fold. Moreover, in the test on PnaD and PnaA (setting [1]), the Km – broadly, the substrate concentration at which the rate is half of its maximum – came out at 547 µM and the kcat – broadly, the maximal rate divided by the concentration of active sites – turned out to be 0.084 s⁻¹. For the compound `CSCC[C@H](NC(=O)[C@H](Cc1c[nH]c2ccccc12)NC(=O)[C@@H](N)CP(=O)(O)O)C(=O)O` [PnAla-Trp-Met], the “product of Met + Trp reaction” value with PnaB and PnaC (role: product, two-enzyme system PnaBC, Met and Trp 3 mM each, ATP 5 mM) is recorded as “major species”.

Regarding `CC(C)[C@H](NC(=O)[C@@H](N)[C@@H](C)O)C(=O)O` [Thr-Val] (H-Thr-Val-OH), the “conversion of dipeptide” value in the test with PnaB is “respective conversion into phosphonoalamides B, C, and D”. As to `C[C@H](N)C(=O)N[C@@H](C)C(=O)O` [Ala-Ala] (H-Ala-Ala-OH), the “abundance of PnAla conjugate” value in the test with PnaB and PnaC is listed as “greatest abundance”. For `N=C(N)NCCC[C@H](N)C(=O)O` [arginine, Arginine], the acceptance as carboxylate entry in the test with PnaC (with ATP) is “all but arginine and cysteine were accepted as carboxylates”. Regarding `CC(C)[C@H](NC(=O)[C@H](C)N)C(=O)O` [Ala-Val] (H-Ala-Val-OH), in the test on PnaB and PnaC, the “abundance of PnAla conjugate” value is on record as “greatest abundance”. Besides, the “dipeptide product of PnaC reaction (Ala + Val, ATP)” value in the test with PnaC (role: product, with Ala, Val, ATP) is “product of the PnaC reaction”. For `CSCC[C@H](NC(=O)[C@H](C)N)C(=O)O` [Ala-Met] (H-Ala-Met-OH), in the test with PnaB and PnaC, the “abundance of PnAla conjugate” value was “greatest abundance”.
